# Counter-ions that a name gives are not always drawn.
# Assays:
# [1] = in vivo; conditions: mouse
# [2] = Plasma concentration in rats after subcutaneous administration (HPLC); conditions: rat, plasma, sc, 5 mg/kg
# Protocol: (§1) For the pharmacokinetic characterization, the plasma concentration of selected derivatives was determined in rats after intravenous (i.v.), subcutaneous (s.c.) and peroral (p.o.) application according to the following three-step procedure:
# (§2) 1. A physiological NaCl solution of the substance to be tested was submitted to high pressure liquid chromatography (HPLC) in order to determine its characteristic substance-specific retention time with the chosen test conditions.
# (§3) 2. The substance to be tested was diluted in vitro in rat plasma. This solution was also submitted to HPLC to see whether the characteristic peak of the substance once again appeared at the substance-specific retention time.
# (§4) 3. […] Blood samples were taken at time intervals of 15 minutes, from which plasma samples were prepared by centrifugation; those samples were also submitted to HPLC to see whether the characteristic peak of the substance appeared again at the substance-specific retention time.
# [3] = Plasma concentration in rats after intravenous administration (HPLC)
# Protocol: as §1, §2, §3, §4
# [4] = molecular target: tPA (Homo sapiens, UniProt P00750); assay: Inhibition of tPA (Ki); assay type: biochemical; conditions: Table 26
# [5] = molecular target: thrombin (Bos taurus, UniProt P00735); assay: Inhibition of thrombin (dissociation constant Ki); assay type: biochemical
# [6] = tested on: thrombin-induced plasma coagulation; assay: Anticoagulant effect in vivo, thrombin-induced plasma coagulation of plasma of treated rats; design: species or system rat; conditions: after i.v., s.c. and p.o. administration; FIG. 5
# Protocol: After i.v., s.c. and p.o. administration of the compounds to be tested, the anticoagulant effect was determined in plasma of experimental animals (illustrated for compound 123 in FIG. 5).
# [7] = Plasma concentration in rats after oral administration (HPLC); conditions: rat, plasma, po, 100 mg/kg
# [8] = molecular target: T1, factor XIIa (Homo sapiens, UniProt P00748); assay: Inhibition of factor XIIa (Ki); assay type: biochemical; conditions: Table 26
# T1 construct: glandular kallikrein, factor XIIa and plasma kallikrein
# T1 sequence (P00748 373-615 limits assumed): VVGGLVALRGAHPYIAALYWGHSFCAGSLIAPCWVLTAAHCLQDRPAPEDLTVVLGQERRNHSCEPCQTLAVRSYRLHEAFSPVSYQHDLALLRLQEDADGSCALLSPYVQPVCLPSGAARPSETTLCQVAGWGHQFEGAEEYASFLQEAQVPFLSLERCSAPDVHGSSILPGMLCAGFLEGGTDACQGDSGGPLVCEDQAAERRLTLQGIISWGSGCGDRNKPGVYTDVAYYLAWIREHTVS
# [9] = molecular target: glandular kallikrein (Sus scrofa, UniProt P00752); assay: Inhibition of glandular kallikrein (Ki); assay type: biochemical; conditions: Table 26; read-out: Ki, Gland. Kallikrein
# Chain of glandular kallikrein (P00752 8-246): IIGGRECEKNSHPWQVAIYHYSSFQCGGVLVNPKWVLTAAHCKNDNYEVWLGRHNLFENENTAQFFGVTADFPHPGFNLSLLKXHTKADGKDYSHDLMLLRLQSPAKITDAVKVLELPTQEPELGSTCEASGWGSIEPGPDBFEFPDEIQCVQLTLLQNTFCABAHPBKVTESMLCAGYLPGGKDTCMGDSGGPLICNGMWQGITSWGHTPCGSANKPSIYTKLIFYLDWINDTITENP
# [10] = molecular target: T2, trypsin (Bos taurus, UniProt P00760); assay: Inhibition of trypsin (Ki); assay type: biochemical; conditions: Table 26
# T2 sequence (P00760 24-246): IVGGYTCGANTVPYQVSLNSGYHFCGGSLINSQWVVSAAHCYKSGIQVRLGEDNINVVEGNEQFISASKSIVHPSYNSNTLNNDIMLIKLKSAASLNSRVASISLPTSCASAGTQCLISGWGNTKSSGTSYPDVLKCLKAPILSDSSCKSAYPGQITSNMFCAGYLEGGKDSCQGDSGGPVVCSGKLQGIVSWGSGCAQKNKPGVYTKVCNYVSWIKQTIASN
# [11] = molecular target: T3, plasmin (Homo sapiens, UniProt P00747); assay: Inhibition of plasmin (Ki); assay type: biochemical; conditions: Table 26
# T3 construct: trypsin and the related enzymes thrombin, plasmin, factor Xa, tPA
# T3 sequence (P00747 581-810 limits assumed): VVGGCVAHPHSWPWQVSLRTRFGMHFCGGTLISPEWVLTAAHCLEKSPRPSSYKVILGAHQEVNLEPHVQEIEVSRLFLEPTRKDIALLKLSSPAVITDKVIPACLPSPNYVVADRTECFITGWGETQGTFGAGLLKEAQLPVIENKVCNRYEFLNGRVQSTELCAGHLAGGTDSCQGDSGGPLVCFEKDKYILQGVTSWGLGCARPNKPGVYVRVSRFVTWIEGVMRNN
# T3 sequence (P00747 97-580 partner limits assumed): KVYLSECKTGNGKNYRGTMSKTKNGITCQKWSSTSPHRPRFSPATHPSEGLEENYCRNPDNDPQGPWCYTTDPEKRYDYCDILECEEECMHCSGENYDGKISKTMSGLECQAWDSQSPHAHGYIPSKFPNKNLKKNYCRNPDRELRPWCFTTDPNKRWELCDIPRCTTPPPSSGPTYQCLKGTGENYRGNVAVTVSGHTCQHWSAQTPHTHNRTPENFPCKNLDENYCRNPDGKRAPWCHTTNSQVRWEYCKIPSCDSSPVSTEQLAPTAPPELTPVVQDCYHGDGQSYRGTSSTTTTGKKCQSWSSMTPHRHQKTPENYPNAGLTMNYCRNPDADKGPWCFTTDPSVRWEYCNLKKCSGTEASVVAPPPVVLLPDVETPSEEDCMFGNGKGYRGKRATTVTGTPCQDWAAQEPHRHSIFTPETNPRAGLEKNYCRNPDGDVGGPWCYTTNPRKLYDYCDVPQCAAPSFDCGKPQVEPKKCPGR
# [12] = molecular target: T4, plasma kallikrein (Homo sapiens, UniProt P03952); assay: Inhibition of plasma kallikrein (Ki); assay type: biochemical; conditions: Table 26
# T4 construct: glandular kallikrein, factor XIIa and plasma kallikrein
# T4 sequence (P03952 391-638 limits assumed, species assumed): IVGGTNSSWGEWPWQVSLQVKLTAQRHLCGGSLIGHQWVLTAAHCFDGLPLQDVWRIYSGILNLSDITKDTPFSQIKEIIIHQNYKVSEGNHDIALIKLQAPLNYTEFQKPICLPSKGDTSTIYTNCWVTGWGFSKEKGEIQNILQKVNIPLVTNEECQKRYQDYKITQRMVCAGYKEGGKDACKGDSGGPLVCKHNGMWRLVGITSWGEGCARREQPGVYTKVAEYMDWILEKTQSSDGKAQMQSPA
# T4 sequence (P03952 20-390 partner limits assumed, species assumed): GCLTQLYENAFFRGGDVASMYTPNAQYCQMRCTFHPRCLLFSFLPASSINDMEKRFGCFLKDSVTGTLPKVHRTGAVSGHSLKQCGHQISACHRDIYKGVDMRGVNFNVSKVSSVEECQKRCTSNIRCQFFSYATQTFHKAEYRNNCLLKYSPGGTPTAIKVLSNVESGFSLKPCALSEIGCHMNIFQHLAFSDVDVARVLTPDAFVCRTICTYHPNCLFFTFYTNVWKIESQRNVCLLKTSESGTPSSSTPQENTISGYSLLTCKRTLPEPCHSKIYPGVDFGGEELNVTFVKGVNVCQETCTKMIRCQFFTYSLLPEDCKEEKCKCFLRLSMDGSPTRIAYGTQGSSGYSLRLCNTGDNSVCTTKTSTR
# [13] = molecular target: factor Xa (Bos taurus, UniProt P00743); assay: Inhibition of factor Xa (dissociation constant Ki); assay type: biochemical; conditions: Tables 19-25; read-out: Ki, Factor Xa
# Chain of factor Xa (P00743 234-492 limits assumed): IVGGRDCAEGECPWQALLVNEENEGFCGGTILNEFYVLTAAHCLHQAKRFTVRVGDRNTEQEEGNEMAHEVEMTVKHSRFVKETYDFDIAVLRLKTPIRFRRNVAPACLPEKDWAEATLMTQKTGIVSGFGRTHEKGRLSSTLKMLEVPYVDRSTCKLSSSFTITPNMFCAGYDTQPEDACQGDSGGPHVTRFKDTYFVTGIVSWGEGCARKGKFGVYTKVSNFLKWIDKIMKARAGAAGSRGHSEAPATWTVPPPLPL
# Chain of factor Xa (P00743 41-180 partner limits assumed): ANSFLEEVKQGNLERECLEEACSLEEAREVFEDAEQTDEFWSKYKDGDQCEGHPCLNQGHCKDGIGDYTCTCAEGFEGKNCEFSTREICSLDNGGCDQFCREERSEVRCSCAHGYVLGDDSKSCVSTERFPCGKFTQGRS
# Chain of tPA (P00750 36-562): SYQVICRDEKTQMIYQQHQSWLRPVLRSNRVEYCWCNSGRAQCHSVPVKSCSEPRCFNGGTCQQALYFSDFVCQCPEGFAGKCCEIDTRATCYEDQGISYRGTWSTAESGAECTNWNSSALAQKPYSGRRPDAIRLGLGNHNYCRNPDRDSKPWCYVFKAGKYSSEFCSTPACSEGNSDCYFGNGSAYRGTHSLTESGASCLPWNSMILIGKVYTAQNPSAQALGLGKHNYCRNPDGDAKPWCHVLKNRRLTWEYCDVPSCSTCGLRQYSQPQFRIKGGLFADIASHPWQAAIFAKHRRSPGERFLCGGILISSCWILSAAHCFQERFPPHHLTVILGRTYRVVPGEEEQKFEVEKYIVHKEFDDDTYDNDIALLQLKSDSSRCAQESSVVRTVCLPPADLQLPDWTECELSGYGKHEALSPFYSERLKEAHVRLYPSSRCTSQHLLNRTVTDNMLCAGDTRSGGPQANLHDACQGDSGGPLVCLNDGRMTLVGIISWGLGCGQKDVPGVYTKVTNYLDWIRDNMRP
smiles,measurement,setting,value
"N=C(N)c1cccc(C[C@H](NS(=O)(=O)c2ccc3ccccc3c2)C(=O)N2CCC[C@@H]2C(=O)O)c1 [Compound 123, N-α-(2-Naphthylsulfonyl)-3-amidino-(L)-phenylalanyl-(D)-proline hydrochloride]",LD50 at 168 h,[1]; iv,188 mg/kg
same,LD50 at 168 h,[1]; po,> 3000 mg/kg
same,concentration at 0.25 h,[2],792 ng/mL
same,concentration at 0.5 h,[2],1340 ng/mL
same,concentration at 0.75 h,[2],1380 ng/mL
same,concentration at 1.5 h,[2],1780 ng/mL
same,concentration at 2 h,[2],1600 ng/mL
same,concentration at 3 h,[2],1140 ng/mL
same,concentration at 4 h,[2],927 ng/mL
same,pharmacokinetic properties,"[3]; in words, compared with NAPAP",improved pharmacokinetic properties
same,Concentration in plasma,"[3]; rat, i.v. 1 mg/kg, 240 min",0 ng/mL
same,concentration at 2 min,"[3]; rat, plasma, iv, 1 mg/kg",2330 ng/mL
same,concentration at 5 min,"[3]; rat, plasma, iv, 1 mg/kg",1180 ng/mL
same,concentration at 10 min,"[3]; rat, plasma, iv, 1 mg/kg",660 ng/mL
same,concentration at 0.25 h,"[3]; rat, plasma, iv, 1 mg/kg",440 ng/mL
same,concentration at 0.5 h,"[3]; rat, plasma, iv, 1 mg/kg",260 ng/mL
same,concentration at 0.75 h,"[3]; rat, plasma, iv, 1 mg/kg",185 ng/mL
same,concentration at 1 h,"[3]; rat, plasma, iv, 1 mg/kg",160 ng/mL
same,concentration at 1.5 h,"[3]; rat, plasma, iv, 1 mg/kg",68 ng/mL
same,concentration at 2 h,"[3]; rat, plasma, iv, 1 mg/kg",32 ng/mL
same,concentration at 3 h,"[3]; rat, plasma, iv, 1 mg/kg",22 ng/mL
same,Ki,[4],300 µM
same,Ki,[5],0.68 µM
same,anticoagulant / antithrombin effect in plasma of experimental animals,[6],the antithrombin effect can be detected in the clotting test
same,concentration at 0.25 h,[7],230 ng/mL
same,concentration at 0.5 h,[7],170 ng/mL
same,concentration at 1 h,[7],100 ng/mL
same,concentration at 1.5 h,[7],133 ng/mL
same,concentration at 3 h,[7],96 ng/mL
same,concentration at 4 h,[7],67 ng/mL
same,Ki,[8],> 1000 µM
same,Ki,[9],> 1000 µM
same,Ki,[10],0.96 µM
same,Ki,[11],95 µM
same,Ki,[12],59 µM
same,Ki,[13],220 µM

# Reference: patent US5518735A, “Meta-substituted phenylalanine derivatives” (priority 1990, dated 1996)
